This is an account of results in patent publication US8952034B2, “Fused heterocyclic compounds as ion channel modulators” (Gilead Sciences, Inc., priority 2009, dated 2015).

The target in the test is wild-type human cardiac sodium channel, hNav1.5 (Homo sapiens, UniProt Q14524). The test can be described thus: Late INa screening assay (automated whole cell patch clamp, PatchXpress). It is filed as cell-based. To be noted: HEK293 cells expressing hNav1.5, late INa generated with 10 μM Tefluthrin (or 50 nM ATX II); for inhibition at 1 µM: compound at 1 μM, read-out: LateINa_1 uM (percent block of late INa); for inhibition at 10 µM: compound at 10 μM, read-out: LateINa_10 uM (percent block of late INa). Put shortly: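 Late sodium current through wild-type human hNav1.5 stably expressed in HEK293 cells (no beta subunits) was recorded by automated whole-cell patch clamp on a PatchXpress 7000A at 24-27° C. Late INa was induced with 10 μM Tefluthrin or 50 nM ATX II. Cells were stepped from −120 mV to −20 mV for 250 ms at 0.1 Hz, and percent block was normalized to current in Na-free extracellular solution.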
In general terms: In patch-clamp work, channel activity is measured electrically.

Sequence of wild-type human cardiac sodium channel, hNav1.5 (Q14524 whole entry): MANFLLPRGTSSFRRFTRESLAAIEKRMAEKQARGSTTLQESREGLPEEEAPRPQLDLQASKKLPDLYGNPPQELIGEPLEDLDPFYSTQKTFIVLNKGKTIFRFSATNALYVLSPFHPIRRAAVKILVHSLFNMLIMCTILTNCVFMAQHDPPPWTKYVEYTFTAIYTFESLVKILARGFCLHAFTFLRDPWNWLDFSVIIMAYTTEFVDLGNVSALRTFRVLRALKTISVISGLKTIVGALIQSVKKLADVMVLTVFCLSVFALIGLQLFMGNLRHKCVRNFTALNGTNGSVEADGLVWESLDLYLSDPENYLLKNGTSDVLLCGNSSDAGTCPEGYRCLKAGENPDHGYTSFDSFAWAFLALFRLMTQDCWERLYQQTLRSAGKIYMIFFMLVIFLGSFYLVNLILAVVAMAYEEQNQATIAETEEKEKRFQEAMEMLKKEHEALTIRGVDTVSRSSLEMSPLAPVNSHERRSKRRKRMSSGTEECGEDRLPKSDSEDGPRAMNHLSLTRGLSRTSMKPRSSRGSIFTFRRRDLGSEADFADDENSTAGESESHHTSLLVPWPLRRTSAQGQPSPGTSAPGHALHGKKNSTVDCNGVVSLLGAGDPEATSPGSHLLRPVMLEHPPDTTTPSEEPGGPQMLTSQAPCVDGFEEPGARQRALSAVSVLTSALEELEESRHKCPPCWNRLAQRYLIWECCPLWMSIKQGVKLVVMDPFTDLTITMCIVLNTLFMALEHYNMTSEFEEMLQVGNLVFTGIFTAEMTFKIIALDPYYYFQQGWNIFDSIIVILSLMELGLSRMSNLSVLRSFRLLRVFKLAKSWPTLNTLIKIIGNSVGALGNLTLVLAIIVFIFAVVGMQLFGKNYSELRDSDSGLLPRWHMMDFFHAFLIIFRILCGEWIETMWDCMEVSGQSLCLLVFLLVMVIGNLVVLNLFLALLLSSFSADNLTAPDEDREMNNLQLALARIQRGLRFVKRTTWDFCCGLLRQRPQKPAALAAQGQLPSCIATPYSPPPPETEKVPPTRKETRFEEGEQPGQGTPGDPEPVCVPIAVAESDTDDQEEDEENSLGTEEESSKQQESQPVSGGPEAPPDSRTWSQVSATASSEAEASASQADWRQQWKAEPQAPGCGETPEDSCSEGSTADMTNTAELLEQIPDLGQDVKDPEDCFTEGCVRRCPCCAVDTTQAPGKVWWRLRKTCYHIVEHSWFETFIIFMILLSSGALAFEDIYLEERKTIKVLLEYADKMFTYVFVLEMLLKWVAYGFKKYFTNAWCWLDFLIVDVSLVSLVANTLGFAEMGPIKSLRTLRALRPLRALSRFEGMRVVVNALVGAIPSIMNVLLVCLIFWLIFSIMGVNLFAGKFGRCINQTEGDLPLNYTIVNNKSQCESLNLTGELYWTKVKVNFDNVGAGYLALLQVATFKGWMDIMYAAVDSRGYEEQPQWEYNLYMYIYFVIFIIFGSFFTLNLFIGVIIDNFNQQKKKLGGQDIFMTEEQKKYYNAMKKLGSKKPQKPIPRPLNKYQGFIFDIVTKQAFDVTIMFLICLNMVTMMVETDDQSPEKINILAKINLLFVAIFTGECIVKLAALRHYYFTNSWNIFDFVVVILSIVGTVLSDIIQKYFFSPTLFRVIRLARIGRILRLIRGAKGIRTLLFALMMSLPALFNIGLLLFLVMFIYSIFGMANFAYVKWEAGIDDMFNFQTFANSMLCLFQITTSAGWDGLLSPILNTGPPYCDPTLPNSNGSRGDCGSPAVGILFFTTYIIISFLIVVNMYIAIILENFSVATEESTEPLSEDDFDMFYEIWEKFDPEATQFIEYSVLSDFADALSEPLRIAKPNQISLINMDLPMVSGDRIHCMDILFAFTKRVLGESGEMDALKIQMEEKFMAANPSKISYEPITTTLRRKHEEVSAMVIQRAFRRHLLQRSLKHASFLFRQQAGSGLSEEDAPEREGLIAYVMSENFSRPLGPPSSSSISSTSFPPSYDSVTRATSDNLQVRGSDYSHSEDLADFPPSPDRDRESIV

Turning to `FC(F)(F)c1nnc2ccc(-c3ccc(Oc4cccnc4)cc3)cn12` [BHN-100, 6-[4-(pyridin-3-yloxy)phenyl]-3-(trifluoromethyl)[1,2,4]triazolo[4,3-a]pyridine], the inhibition at 1 µM came to 27.6%.

With `FC(F)(F)Oc1ccc(-c2ccc3nnc(C(F)(F)OCC#Cc4ccccc4)n3c2)cc1` [BHN-295, 3-{difluoro[(3-phenylprop-2-yn-1-yl)oxy]methyl}-6-[4-(trifluoromethoxy)phenyl][1,2,4]triazolo[4,3-a]pyridine], the inhibition at 1 µM amounted to 87.7%. `FC(F)(F)c1ncc2ccc(-c3ccccc3)cn12` [BHN-194, 6-phenyl-3-(trifluoromethyl)imidazo[1,5-a]pyridine]: the inhibition at 1 µM turned out to be 22.2%. `FC(F)(F)Oc1ccc(-c2ccc3nnc(C(F)(F)OCc4ccc(-n5cccn5)nc4)n3c2)cc1` [BHN-315, 3-(difluoro{[6-(1H-pyrazol-1-yl)pyridin-3-yl]methoxy}methyl)-6-[4-(trifluoromethoxy)phenyl][1,2,4]triazolo[4,3-a]pyridine]: the inhibition at 1 µM turned out to be 55.9%. `COCC(F)(F)c1nnc2ccc(-c3ccc(Oc4ccccc4)cc3)cn12` [BHN-136, 3-(1,1-difluoro-2-methoxyethyl)-6-(4-phenoxyphenyl)[1,2,4]triazolo[4,3-a]pyridine]: the inhibition at 1 µM worked out at 45%.

As for `CC(OC(F)(F)c1nnc2ccc(-c3ccc(OC(F)(F)F)cc3)cn12)c1ccc(F)cc1` (stereo not shown) [BHN-217, 3-{difluoro[1-(4-fluorophenyl)ethoxy]methyl}-6-[4-(trifluoromethoxy)phenyl][1,2,4]triazolo[4,3-a]pyridine], the inhibition at 1 µM was found to be 16.8%.

As for `FC(F)(F)Oc1ccc(-c2ccc3nnc(COCc4ccccc4C(F)(F)F)n3c2)cc1` [BHN-239, 6-[4-(trifluoromethoxy)phenyl]-3-({[2-(trifluoromethyl)benzyl]oxy}methyl)[1,2,4]triazolo[4,3-a]pyridine], the inhibition at 1 µM was found to be 65.1%. For `Cc1ccc(COCc2nnc3ccc(-c4ccc(OC(F)(F)F)cc4)cn23)nc1` [BHN-252, 3-{[(5-methylpyridin-2-yl)methoxy]methyl}-6-[4-(trifluoromethoxy)phenyl][1,2,4]triazolo[4,3-a]pyridine], the inhibition at 1 µM worked out at 20.6%.

Consider `FC(F)(F)c1nnc2ccc(-c3ccc(C4CC4)nc3)cn12` [BHN-88, 6-(6-cyclopropylpyridin-3-yl)-3-(trifluoromethyl)[1,2,4]triazolo[4,3-a]pyridine], for which the inhibition at 10 µM was 36%. Regarding `CCOC(=O)c1ccc(-c2nnc3ccc(-c4ccc(OC(F)(F)F)cc4)cn23)cc1` [BHN-86, ethyl 4-{6-[4-(trifluoromethoxy)phenyl][1,2,4]triazolo[4,3-a]pyridin-3-yl}benzoate], the inhibition at 1 µM was 82.7% and the inhibition at 10 µM is 86.9%. Consider `Fc1ccc(-c2cc(COC(F)(F)c3nnc4ccc(-c5ccc(OC(F)(F)F)cc5)cn34)no2)cc1` [BHN-318, 3-(difluoro{[5-(4-fluorophenyl)-1,2-oxazol-3-yl]methoxy}methyl)-6-[4-(trifluoromethoxy)phenyl][1,2,4]triazolo[4,3-a]pyridine], for which the inhibition at 1 µM stood at 28.9%.

In the case of `Fc1cc(-c2ccc3nnc(C(F)(F)F)n3n2)cc(F)c1Oc1ccccc1` [BHN-210, 6-(3,5-difluoro-4-phenoxyphenyl)-3-(trifluoromethyl)[1,2,4]triazolo[4,3-b]pyridazine], the inhibition at 1 µM came to 33.8%. In the case of `FC(F)(F)COc1ccc(-c2ccc3cnc(C(F)(F)F)n3c2)cc1` [BHN-28, 6-[4-(2,2,2-trifluoroethoxy)phenyl]-3-(trifluoromethyl)imidazo[1,5-a]pyridine], the inhibition at 1 µM came to 46.1% and the inhibition at 10 µM amounted to 78.3%.

Regarding `FC(F)(F)Oc1ccc(-c2ccc3nnc(C(F)(F)COCc4cc(-c5ccc(Cl)cc5)no4)n3c2)cc1` [BHN-235, 3-(2-{[3-(4-chlorophenyl)-1,2-oxazol-5-yl]methoxy}-1,1-difluoroethyl)-6-[4-(trifluoromethoxy)phenyl][1,2,4]triazolo[4,3-a]pyridine], the inhibition at 1 µM amounted to 41.5%.
